Measured values reported in patent US20240101535A1, “DIHYDROISOQUINOLINONE DERIVATIVE AND APPLICATION THEREOF” (ETERN BIOPHARMA (SHANGHAI) CO., LTD., priority 2020, published 2024).

What was measured:
[1] = test system: MV4-11 cells; test: MV4-11 cell proliferation inhibition experiment (CellTiter-Glo); assay type: cell-based; conditions: Homo sapiens, 144 h, 6 days, read-out: cell proliferation inhibitory activity
Description: Test Example 2: MV4-11 Cell (ATCC: CRL-9591) Proliferation Inhibition Experiment
ATP in living cells was quantitatively detected by CellTiter-Glo (Promega-G7573) Luminescence Cell Viability Assay Kit to determine the effect of the compounds to be tested on cell proliferation. • Step 1: MV4-11 cells were seeded in 96-well plates (Greiner-655098) at a density of 1,500 cells per well with a volume of 140 μL per well; Cell culture medium components included RPM11640 (Gibco-A10491-01)+10% FBS (Gibco-10099-141C)+1% Penicillin-Streptomycin (5,000 U/mL, Gibco-15070-063). • Step 2: On the day of cell seeding, the cells were treated with the compound to be tested. The compound to be tested was diluted with a 3-fold gradient, and a total of 9 concentration gradients were set. DMSO (Sigma, D2650) with 0.5% final concentration or a DMSO solution containing the compound to be tested was added per well with 2 or 3 replicate wells at each concentration point. The plates were incubated at 37° C. in a 5% CO2 incubator (Thermo Scientific Steri-Cycle 371) for 6 days. • Step 3: The cell viability in the control and treatment groups was detected with CellTiter-Glo Luminescent Cell Viability Assay Kit. 50 μL of CellTiter-Glo was added per well, mixed well, and incubated for 15 min at room temperature protected from light. According to the kit instructions, the chemiluminescence signal was read using a multifunctional microplate reader (EnVision, PerkinElmer).
The inhibition percentage (%) of the compound at each concentration point was calculated by the following formula:
Inhibition Percentage (%)=(1−signal value of the group treated with the compound/signal value of the group treated with DMSO)*100.
The value of cell proliferation semi-inhibitory concentration IC50 was calculated using GraphPad Prism software, and the results are shown in Table 2.

[2] = molecular target: WDR5 protein (22-334aa) with MLL1 polypeptide (3672-3773aa) (Homo sapiens, UniProt P61964); test: WDR5-MLL PPI inhibitory activity test (HTRF); assay type: binding; conditions: His-tagged WDR5 and biotin-tagged MLL1 polypeptide
Description: Test Example 1: WDR5-MLL PPI Inhibitory Activity Test
Effect of the compounds on WDR5 (WD Repeat Domain 5) and MLL1 (mixed-lineage leukemia 1) peptides at molecular level.
The effect of the compound on the interaction of WDR5 protein (22-334aa) with MLL1 polypeptide (3672-3773aa) was detected by HTRF (Homogeneous Time-Resolved Fluorescence) technology. When the N-terminal His-tagged WDR5 recognized by the Anti-6His-Eu cryptate donor interacts with the biotin-tagged MLL1 polypeptide recognized by the streptavidin-APC receptor, the donor and acceptor are pulled close enough to produce fluorescence resonance energy transfer (FRET). […] Therefore, the decrease in FRET signal can reflect the compound's inhibition on the interaction of WDR5 with MLL1 polypeptide.
The compound to be tested was diluted 3-fold with DMSO. […] Then the compound was diluted with reaction buffer (25 mM HEPES pH=7.5, 100 mM NaCl, 0.05% Tween 20) to control the final concentration of DMSO at 0.5%. In a 384-well plate, 1 μL of compound and 3 μL of 42 nM WDR5 protein were added, centrifuged at 1000 rpm for 1 min, incubated at room temperature for 60 min, followed by adding 3 μL of 333 nM MLL1 polypeptide with incubation at room temperature for 10 min, and followed by adding 3 μL of a mixed liquid of Anti-6His-Eu cryptate and streptavidin-APC with centrifugation at 1000 rpm for 1 mi and incubation at room temperature protected from light for 60 min, using a multifunction microplate reader (EnVision®2105) to read the signal. The following controls were set up per plate: control group (1 μL with 5% DMSO reaction buffer, 3 μL of 42 nM WDR5, 3 μL of MLL1 polypeptide, 3 μL of Anti-6His-Eu cryptate and streptavidin-APC). Blank group (1 μL reaction buffer with 5% DMSO, 3 μL reaction buffer, 3 μL MLL1 polypeptide, 3 μL Anti-6His-Eu cryptate and streptavidin-APC). The test data was calculated according to the signal ratio of two beams of fluorescence at different wavelengths: (665 nm signal/620 nm signal)*10000. […] The IC50 value was calculated using XLfit software.

Row | IC50 [1] [µM] | IC50 [2] [µM] | SMILES
1 | < 0.05 | < 0.02 | CCOc1cc([C@H](C)N2CC3(CCCC3)c3c(CN(C)C)cc(Cn4ccnc4NC)cc3C2=O)ncc1F [Compound 19, (S)-5′-((dimethylamino)methyl)-2′-(1-(4-ethoxy-5-fluoropyridine-2-yl)ethyl)-7′-((2-(methylamino)-1H-imidazol-1-yl)methyl)-2′,3′-dihydro-1′H-spiro[cyclopentan-1,4′-isoquinoline]-1′-one]
2 | < 0.05 | < 0.02 | CCOc1cc([C@H](C)N2CC3(CC3)c3c(CN4CCN(C)CC4)cc(Cn4ccnc4NC)cc3C2=O)ncc1F [Compound 37]
3 | 0.05 to 0.2 | 0.02 to 0.1 | CCOc1cc(C(C)N2CC3(CC3)c3c(CN(C)CC(F)(F)F)cc(Cn4ccnc4NC)cc3C2=O)ncc1F (centres unmarked) [Compound 41, 2′-(1-(4-ethoxy-5-fluoropyridine-2-yl)ethyl)-5′-((methyl(2,2,2-trifluoroethyl)amino)methyl)-7′-((2-(methylamino)-1H-imidazol-1-yl)methyl)-2′,3′-dihydro-1′H-spiro[cyclopropan-1,4′-isoquinoline]-1′-one]
4 | 0.05 to 0.2 | < 0.02 | CNc1nccn1Cc1cc(CN(C)C)c2c(c1)C(=O)N([C@@H](C)c1cc(OC(F)F)c(F)cn1)CC21CC1 [Compound 55]
5 | < 0.05 | < 0.02 | CCOc1cc([C@H](C)N2CC3(CC3)c3c(CN4CCN(CC)CC4)cc(Cn4ccnc4NC)cc3C2=O)ncc1F [Compound 57]
6 | < 0.05 | < 0.02 | CCOc1cc([C@H](C)N2CC3(CC3)c3c(CN4CCOCC4)cc(Cn4ccnc4NC)cc3C2=O)ncc1C#N [Compound 59]
7 | 0.05 to 0.2 | < 0.02 | CNc1nccn1Cc1cc(CN2CC(F)(F)C2)c2c(c1)C(=O)N([C@@H](C)c1cc(OC)c(C#N)cn1)CC21CC1 [Compound 61]
8 | 0.05 to 0.2 | < 0.02 | CCOc1cc([C@H](C)N2CC3(CC3)c3c(CN4CCN(CC(F)(F)F)CC4)cc(Cn4ccnc4NC)cc3C2=O)ncc1C#N [Compound 63, (S)-4-ethoxy-6-(1-(7′-((2-(methylamino)-1H-imidazol-1-yl)methyl)-1′-one-5′-((4-(2,2,2-trifluoroethyl)piperazin-1-yl)methyl)-1′H-spiro[cyclopropan-1,4′-isoquinoline]-2′(3′H)-yl)ethyl)nicotinonitrile]
9 | 0.05 to 0.2 | < 0.02 | CCOc1cc([C@H](C)N2CC3(CC3)c3c(CN4CCN(C5CC5)CC4)cc(Cn4ccnc4NC)cc3C2=O)ncc1F [Compound 64, (S)-5′-((4-cyclopropylpiperazin-1-yl)methyl)-2′-(1-(4-ethoxy-5-fluoropyridine-2-yl)ethyl)-7′-((2-(methylamino)-1H-imidazol-1-yl)methyl)-2′,3′-dihydro-1′H-spiro[cyclopropan-1,4′-isoquinoline]-1′-one]
10 | < 0.05 | < 0.02 | CCOc1cc(CN2CC3(CC3)c3c(CN4CCN(C)CC4)cc(Cn4ccnc4NC)cc3C2=O)nn1C [Compound 66, 2′-((5-ethoxy-1-methyl-1H-pyrazole-3-yl)methyl)-7′-((2-(methylamino)-1H-imidazol-1-yl)methyl)-5′-((4-methylpiperazin-1-yl)methyl)-2′,3′-dihydro-1′H-spiro[cyclopropan-1,4′-isoquinoline]-1′-one]
11 | < 0.05 | < 0.02 | CCOc1cc([C@H](C)N2CC3(CC3)c3c(CN4CC(F)(F)C4)cc(Cn4ccnc4NC)cc3C2=O)ncc1C#N [Compound 67, (S)-6-(1-(5′-((3,3-difluoroazetidinyl-1-yl)methyl)-7′-((2-(methylamino)-1H-imidazol-1-yl)methyl)-1′-one-1′H-spiro[cyclopropan-1,4′-isoquinoline]-2′(3′H)-yl)ethyl)-4-ethoxynicotinonitrile]
12 | 0.05 to 0.2 | < 0.02 | CCOc1cc([C@H](C)N2CC3(CC3)c3c(CN4CC(F)(F)C4)cc(Cn4ccnc4NC)cc3C2=O)ncc1F [Compound 68, (S)-5′-((3,3-difluoroazetidinyl-1-yl)methyl)-2′-(1-(4-ethoxy-5-fluoropyridine-2-yl)ethyl)-7′-((2-(methylamino)-1H-imidazol-1-yl)methyl)-2′,3′-dihydro-1′H-spiro[cyclopropan-1,4′-isoquinoline]-1′-one]
13 | < 0.05 | < 0.02 | CCOc1cc([C@H](C)N2CC3(CC3)c3c(CN4C5CC4CN(C)C5)cc(Cn4ccnc4NC)cc3C2=O)ncc1F [Compound 70, 2′-((S)-1-(4-ethoxy-5-fluoropyridine-2-yl)ethyl)-5′-((3-methyl-3,6-diazadicyclo[3.1.1]heptan-6-yl)methyl)-7′-((2-(methylamino)-1H-imidazol-1-yl)methyl)-2′,3′-dihydro-1′H-spiro[cyclopropan-1,4′-isoquinoline]-1′-one]
14 | < 0.05 | < 0.02 | CCOc1cc(CN2CC3(CC3)c3c(CN(C)C)cc(Cn4ccnc4NC)cc3C2=O)ncc1C#N [Compound 71, 6-((5′-((dimethylamino)methyl)-7′-((2-(methylamino)-1H-imidazol-1-yl)methyl)-1′-one-1′H-spiro[cyclopropan-1,4′-isoquinoline]-2′(3′H)-yl)methyl)-4-ethoxynicotinonitrile]
15 | < 0.05 | < 0.02 | CCOc1cc([C@H](C)N2CC3(CCC3)c3c(CN4CCOCC4)cc(Cn4ccnc4NC)cc3C2=O)ncc1C#N [Compound 72, (S)-4-ethoxy-6-(1-(7′-((2-(methylamino)-1H-imidazol-1-yl)methyl)-5′-(morpholinylmethyl)-1′-one-1′H-spiro[cyclobutyl-1,4′-isoquinoline]-2′(3′H)-yl)ethyl)nicotinonitrile]
16 | < 0.05 | < 0.02 | CCOc1cc([C@H](C)N2CC3(CCC3)c3c(CN4CCN(C)CC4)cc(Cn4ccnc4NC)cc3C2=O)ncc1C#N [Compound 73, (S)-4-ethoxy-6-(1-(7′-((2-(methylamino)-1H-imidazol-1-yl)methyl)-5′-((4-methylpiperazin-1-yl)methyl)-1′-one-1′H-spiro[cyclobutan-1,4′-isoquinoline]-2′(3′H)-yl)ethyl)nicotinonitrile]
17 | < 0.05 | < 0.02 | CCOc1cc(CN2CC3(CCC3)c3c(CN(C)C)cc(Cn4ccnc4NC)cc3C2=O)ncc1C#N [Compound 77, 6-((5′-((dimethylamino)methyl)-7′-((2-(methylamino)-1H-imidazol-1-yl)methyl)-1′-one-1′H-spiro[cyclobutan-1,4′-isoquinoline]-2′(3′H)-yl)methyl)-4-ethoxynicotinonitrile]
18 | < 0.05 | < 0.02 | CCOc1cc([C@H](C)N2CC3(CCC3)c3c(CN4CCN(S(C)(=O)=O)CC4)cc(Cn4ccnc4NC)cc3C2=O)ncc1F [Compound 78, (S)-2′-(1-(4-ethoxy-5-fluoropyridine-2-yl)ethyl)-7′-((2-(methylamino)-1H-imidazol-1-yl)methyl)-5′-((4-(methylsulfonyl)piperazin-1-yl)methyl)-2′,3′-dihydro-1′H-spiro[cyclobutan-1,4′-isoquinoline]-1′-one]
19 | < 0.05 | < 0.02 | CCOc1cc([C@H](C)N2CC3(CCC3)c3c(CN4CC(F)(F)C4)cc(Cn4ccnc4NC)cc3C2=O)ncc1C#N [Compound 79, (S)-6-(1-(5′-((3,3-difluoroazetidinyl-1-yl)methyl)-7′-((2-(methylamino)-1H-imidazol-1-yl)methyl)-1′-one-1′H-spiro[cyclobutan-1,4′-isoquinoline]-2′(3′H)-yl)ethyl)-4-ethoxynicotinonitrile]
